# From article PMC8262883, “Human Gut Faecalibacterium prausnitzii Deploys a Highly Efficient Conserved System To Cross-Feed on β-Mannan-Derived Oligosaccharides” (mBio, 2021)
# Target: T1, FpMOBP (Faecalibacterium prausnitzii, UniProt D4KAW3)
# T1 construct: gene FPR_17280; mature form without predicted signal peptide, C-terminal His6 tag (pNIC-CH), E. coli BL21 STAR; 48 kDa
# T1 sequence (D4KAW3 26-470): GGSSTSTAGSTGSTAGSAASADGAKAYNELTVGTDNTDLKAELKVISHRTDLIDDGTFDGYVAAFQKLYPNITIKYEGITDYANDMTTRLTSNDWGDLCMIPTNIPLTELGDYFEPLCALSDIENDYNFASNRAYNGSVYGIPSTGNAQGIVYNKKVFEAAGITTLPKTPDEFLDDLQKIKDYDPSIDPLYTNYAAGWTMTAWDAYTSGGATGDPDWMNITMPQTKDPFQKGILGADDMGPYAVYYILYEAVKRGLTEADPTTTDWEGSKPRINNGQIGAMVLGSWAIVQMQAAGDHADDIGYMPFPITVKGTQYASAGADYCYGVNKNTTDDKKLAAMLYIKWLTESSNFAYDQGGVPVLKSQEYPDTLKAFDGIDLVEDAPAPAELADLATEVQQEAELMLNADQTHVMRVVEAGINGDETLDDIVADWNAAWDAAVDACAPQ
# Assay: isothermal titration calorimetry
# Format: binding
# Conditions: 25°C, 50 mM sodium phosphate pH 6.5; n = 0.8
smiles,measurement,value
"OC[C@H]1O[C@@H](O[C@H]2[C@H](O)[C@H](O)[C@H](O[C@H]3[C@H](O)[C@H](O)[C@H](O[C@H]4[C@H](O)[C@H](O)[C@H](O[C@H]5[C@H](O)[C@H](O)[C@H](O[C@H]6[C@H](O)[C@H](O)C(O)O[C@@H]6CO)O[C@@H]5CO)O[C@@H]4CO)O[C@@H]3CO)O[C@@H]2CO)[C@@H](O)[C@@H](O)[C@@H]1O (stereo partly shown) [M6, mannohexaose]",Kd,189 ± 1.4 µM
